Results published in article PMC5118709, “Identification of Polo-like kinase 1 interaction inhibitors using a novel cell-based assay” (Scientific Reports, 2016).
Entries after “also recorded” stand apart in the source; their conditions may differ. Where no end group is shown, it is not given here. [ ]: non-standard residue; d: D form. The star is where a group is joined. FITC = O=C1OC2(c3ccc(O)cc3Oc3cc(O)ccc32)c2ccc(NC(=S)*)cc21; pT = C[C@@H](OP(=O)(O)O)[C@H](N)C(=O)O

How the values were obtained:
CRAF-BRAF = biological target: T1, CRAF-BRAF (Homo sapiens, UniProt P04049+P15056); assay: control BRET CRAF-BRAF (transient); format: cell-based
T1 construct: expressed in transfected cells; host or cells: HEK293T, transient transfection with PEI
Description: (§1) We used our cell-based assay to screen a library of 112 983 compounds available in-house at IRIC’s High-Throughput Screening (HTS) platform (see Materials & Methods). Compounds were tested on cells in 384-well plates at concentrations between 10 μM and 25 μM, depending on their concentration in the original stocks solutions. BRET readings were taken 2 hours after treatment. Results obtained show a tight, close to normal distribution centered around zero inhibition relative to DMSO-treated controls (Fig. 1D). Compounds inducing at least 30% BRET inhibition were selected. From these, auto-fluorescent compounds and those that induced more than 90% reduction in RLucII luminescence were removed, leaving 800 primary hits, that we then re-tested using the same assay. In parallel, we tested these compounds in a control BRET assay for an unrelated pair of interacting proteins (BRAF-CRAF[46]) to exclude false-positive compounds that could reduce the BRET signal by interfering with light or by modifying the activity of GFP or Luc.
(§2) For the confirmation screen, the same procedure as for the primary screen was followed, except that HEK293T cells were also seeded at 6.25 millions of cells per simple CellStack on day 1 for transient transfections. These cells were transfected on day 3 with Luc-Map (5 μg) and Plk1-GFP (25 μg) pIRESHyg3 plasmids using polyethylenimine (PEI). To identify false-positives compounds, Luc-CRAF (4 μg) and GFP-BRAF (20 μg) plasmids were also transfected with PEI following the published procedure.

HeLa cells [1] = assay: mitotic index assay (phospho-Histone H3) in HeLa cells; format: cell-based; conditions: 10 μM
HeLa cells [2] = assay: mitotic defect phenotypes by immunofluorescence; format: cell-based; conditions: 10 μM, 7 h
Description: HeLa cells were treated with these compounds along with the known PBD inhibitors PPG, TQ, Poloxin and the KD inhibitor BI2536 as controls, and then stained against α-Tubulin, pericentrin (a centrosome marker) and DNA (Fig. 2D). In all cases, there was a marked increase in the frequency of disorganized spindles compared with DMSO-treated control cells. This is expected as Plk1 plays multiple roles in spindle assembly and maintenance. […] Cpd 69, an analog of compound 122, induced a similar phenotype at lower concentrations (data not shown). This phenotype was not seen after treatment with BI2536.
For the mitotic defect phenotypes, 25 200 HeLa cells were plated on poly-L-lysine coated round cover slips in 24-well plates. The day after, cells were treated for 7 hours, and then washed with PHEM buffer at 37 °C before fixation in PHEM buffer containing 4% formaldehyde for 20 minutes at 37 °C. Cells were washed three times with TBS-tween 0.1% and plate was kept overnight at 4 °C. Next steps were followed as previously described except that coverslips were incubated in a dark wet chamber with antibodies. Anti-pericentrin (diluted 1:1000; Abcam), anti-α-tubulin DM1A (diluted 1:500; Sigma-Aldrich), Alexa Fluor 488 anti-rabbit and Texas-Red anti-mouse (diluted 1:200; Invitrogen) were used. Coverslips were mounted on slide using Vectashield media containing DAPI (Vector Laboratories).
Images shown in Fig. 2D were acquired on an AxioImager microscope (Carl Zeiss) with a 100x oil objective (NA 1.4 DICIII) and an AxioCam HRM camera (Carl Zeiss) using AxioVision software (Carl Zeiss).

Plk1-Map interaction [3] = biological target: T2, Plk1-Map interaction (Homo sapiens, UniProt P53350); assay: LUMIER co-immunoprecipitation assay Plk1-Map
Description: After cell lysis, GFP-Plk1 was immunoprecipitated and co-purified Map-Luc was measured by luminescence following addition of the luciferase substrate, coelenterazine.
Half a million stably transfected Map205-RLucII/GFP10-Plk1 cells in Tyrode solution were seeded per well in a 96-well plate and allowed to settle for 30 min at 37 °C. […] Plates were then centrifuged at 4 °C at 3000 rpm for 5 minutes to pellet cells. Cells were then lysed with the IP buffer (20 mM Tris pH 7.5, 150 mM NaCl, 2 mM EGTA, 0.5% NP-40, 1 mM DTT, PMSF, aprotinin and leupeptin) and incubated on ice for 20 minutes. Plates were centrifuged again at 4 °C at 3400 rpm for 10 minutes, and the soluble fraction was transferred into a new 96-well plate. Note that 10 μl of this fraction was transferred in white 96-well plates from which the luminescence was read as a measure of the input amount of cell lysate for the co-IP. GFP-Plk1 was immunoprecipitated by adding 0.35 μl of anti-GFP antibody (Invitrogen). Plates were sealed and incubated on a rotator at 4 °C for 30 minutes. Then, 4 μl of pre-washed protein A magnetic beads (Invitrogen) were added to each well. Plates were sealed and incubated at 4 °C for 1h30. The extracts + beads were then transferred in a 96-well PCR plates and beads were washed 3 times with the IP buffer using a magnetic 96-well rack. The fourth wash was done in Tyrode solution, then beads were re-suspended with it and transferred in a white 96-well plate. […] Tyrode was also added to the plates containing the input fraction, then Coelenterazine h was added to the wells, and enhanced luminescence was read as described above.

GST-PBD367-603 of Plk1 = GST-PBD367-603 of Plk1 (Homo sapiens, UniProt P53350); assay: fluorescence polarization assay PBD-phosphopeptide
HEK293T cells = assay: mitotic index assay (phospho-Histone H3) in HEK293T cells; conditions: 10 μM
Description: For the mitotic index assay, 4000 HeLa cells or 5000 HEK293T cells per well were seeded in a 96-well plate. The day after, cells were incubated for 7 hours with different compounds, and then fixed by adding formaldehyde (4% final concentration) directly to each well. Plates were incubated 20 minutes at 37 °C, and then wells were rinsed three times with TBS-Tween 0.1%. A 1 hour block with PHEM buffer (60 mM Pipes, 25 mM HEPES, 10 mM EGTA, 4 mM MgSO4, pH 6.9) containing 2% BSA and 0.1% triton was performed, before addition of the primary antibody to the wells. The anti-phospho-Histone H3 (Ser10) antibody (EMD Millipore) was diluted 1:300 in PHEM buffer containing 2% BSA and added to the wells for 2 hours at room temperature in the dark. […] Plates were incubated for 1h 30 at room temperature in the dark, and then wells were washed 3 times with TBS-Tween 0.1%. A solution of Mowiol containing DAPI was finally added to the wells. Plates were kept at 4 °C in the dark until imaging using the 20x objective on an Operetta system (Perkin Elmer inc.). The mitotic index, corresponding to the percentage of pHH3 positive cells relative to the total number of DAPI-stained cells detected was calculated by the Operetta using the Harmony 3.5 software. Experiments were done in triplicates.

Plk1-Map interaction [4] = biological target: T2, Plk1-Map interaction; assay: BRET Plk1-Map, stable HEK293T Plk1-Luc/GFP-Map cell line; format: cell-based; parameters: cDNAs for the human full length Plk1; expressed in transfected cells
Text: To develop a cell-based assay for the identification of Plk1 interaction inhibitors, we used Bioluminescence Resonance Energy Transfer (BRET)[42][43]. The assay monitors the interaction in HEK293T cells between Plk1 and Map205, a protein that we previously identified as an interactor of Drosophila Polo (Plk1 ortholog) on its PBD[44]. Although no ortholog of Drosophila Map205 has been found in vertebrates, this protein robustly interacts with vertebrate Plk1. […] Importantly, crystallography with zebrafish Plk1 has recently shown that Map205 nevertheless docks in the canonical phosphopeptide binding site of the PBD, with the natural phospho-mimetic Glu314 residue (Fig. 1A)[45]. In our assay, human Plk1 and a fragment of Drosophila Map205 (Map205_254-416 = Map) are respectively fused to Renilla luciferase II (Luc) and GFP10 (GFP), giving rise to energy transfer when the proteins are in close proximity (Fig. 1B). […] All combinations of Plk1 and Map tagged with Luc and GFP were tested (Supplementary Fig. S1). The Plk1-Luc/GFP-Map combination was selected because it yielded the highest BRET dynamic window. We then generated clonal stable cell lines co-expressing these two fusion proteins. These cell lines behaved very similarly to each other in BRET, and we selected one line that gave a high and reproducible BRET signal, with a Z′ score of 0.78, indicative of a robust assay for the purpose of a chemical screen (Supplementary Fig. S1).
as §1
For BRET on transiently transfected cells, 48 hours after the transfection, medium was removed, cells were washed twice with PBS, and then Tyrode solution (140 mM NaCl, 2.7 mM KCl, 12 mM NaHCO3, 5.6 mM D-glucose, 0.49 mM MgCl2, 0.37 mM NaH2PO4, 25 mM HEPES, pH 7.4, where 1 mM CaCl2 was freshly added) was added to the cells. Total fluorescence was first measured using a FlexStation II microplate reader (Molecular Devices), where the GFP10 was excited at 400 nm and read at 510 nm. Then, cells were treated for 5 minutes with 2.5 μM coelenterazine 400a (Gold Technology) before reading BRET2 using the Mithras LB940 microplate reader (Berthold Technologies). BRET2 signal corresponds to the light emitted by the GFP10 acceptor constructs (515 nm ± 20 nm) divided by the light emitted by the RlucII donor constructs (400 nm ± 70 nm). Net BRET2 was calculated by subtracting the background BRET ratio of the RLucII plasmid alone from the BRET ratio obtained by the two BRET partners. The Net BRET2 was plotted according to the GFP10/RLucII ratio, which was obtained by dividing the total fluorescence by the RLucII emission.
For the high throughput chemical screen, cells were amplified and frozen as multiple 1 ml aliquots containing 25 millions of stable HEK293T Plk1-Luc/GFP-Map cells to ensure that cells at the same passage number are used during the screen. […] Five days later, cells were counted and re-suspended in Tyrode solution. […]

Plk1-Map interaction [5] = biological target: T2, Plk1-Map interaction; assay: BRET Plk1-Map, transient Luc-Map/Plk1-GFP in HEK293T; format: cell-based; parameters: cDNAs for the human full length Plk1; expressed in transfected cells; conditions: confirmation screen
Description: as §2

[6] = reaction with amino-protected amino acids (LC-MS); conditions: room temperature
Description: Vinyl sulfones are reactive species that can alkylate substrates as a result of a nucleophilic attack on the distal carbon of the vinyl group. To evaluate the potential of Cpd 161 (vinyl sulfone) to react with proteins, we tested its reaction with nucleophilic amino acid side chains groups. […] To test whether Cpd 161 could react covalently with the PBD, we incubated them together and examined the molecular mass of the protein by SDS-PAGE (Fig. 7). […] Consistent with this idea, the extent of the shift depended on the concentration of Cpd 161 used (Fig. 7B) and also on the incubation time (Fig. 7C).
To a stirred solution of electrophile (0.02 mmol) and amino acid (1- 1.5eq) in DMF (0.3 ml) were added a few drops of a diluted aqueous solution of sodium bicarbonate. The reaction was monitored using an Agilent 6120 Quadrupole LC/MS system (Agilent Technologies). In all cases, the molecular ion of the product was observed.

His-PBD326-603 [7] = biological target: T3, His-PBD326-603 (Homo sapiens, UniProt P53350); assay: alkylation sites on the PBD by LC-MS/MS
Description: Proteins were precipitated using acetone and resuspended in 100 μl. Sample reduction was performed by adding 50 μl of 5 mM TCEP in 50 mM ammonium bicarbonate. Samples were then added 50 μl of chloroacetamide 50 mM with ammonium bicarbonate 50 mM to protect exposed cysteine residues. One microgram of trypsin was added and the digestion was performed for 8 h at 37 °C. […] Each full MS spectrum acquired with a 70,000 resolution was followed by 12 MS/MS spectra, where the 12 most abundant multiply charged ions were selected for MS/MS sequencing. Peptides were identified using Peaks 8.0 (Bioinformatics Solution Inc.) and peptide sequences were blasted against the Human Uniprot database. Tolerance was set at 10 ppm for precursor and 0.01 Da for fragment ions during data processing. For the post-translational modification of proteins, occurrence of carbamidomethylation (C), oxidation (M), deamidation (NQ) was considered as well as addition of TQ (C, K), Poloxin (K, C, H), and vinyl sulfone (C, H, K) when needed.

His-PBD326-603 [8] = biological target: T3, His-PBD326-603; assay: covalent reaction with the PBD by SDS-PAGE; parameters: His-PBD326-603 was expressed in E.coli BL21; made in house; host or cells: E. coli BL21; conditions: 2.5 mM, 3-4 h
Description: Vinyl sulfones are reactive species that can alkylate substrates as a result of a nucleophilic attack on the distal carbon of the vinyl group.
Membranes were blocked with TBS-Tween 0.1% containing 5% of dry milk powder, then incubated with anti-Plk1 (F-8; Santa Cruz Biotechnologies Inc.) or with a 6x-His epitope tag antibody (Invitrogen; gift from Gregory Emery). HRP-conjugated goat anti-mouse IgG (Jackson ImmunoResearch Laboratories inc.) was used and TBS-Tween 0.1% was used for the washes before and after the secondary antibody. […] Gels were imaged using a ChemiDoc MP system (BioRad).

mitosis = conditions: cited from earlier work
human GST-PBD_(367-603) = biological target: T4, human GST-PBD_(367-603) (human, UniProt P53350 367-603); assay: fluorescence polarisation; competition: FITC-phosphopeptide 10 nM and GST-PBD 367-603 at 38 nM (EC65), unlabeled phosphopeptide at increasing concentrations; FP buffer; conditions: both partners purified
T4 construct: also called Polo-Box Domain of Plk1; source: bought: Sigma-Aldrich

[9] = biological target: T5, Human Plk1 full length protein (human, UniProt P53350 1-603); assay: fluorescence polarisation; FITC-Map peptide with the PBD or full-length Plk1 (Supplementary Fig. S3); compounds tested up to 100 uM; conditions: both partners purified
T5 construct: Polo-like kinase 1 (Plk1), human, full length protein; also called full-length Plk1; whole Plk1; source: bought: Abcam
T5 sequence (P53350 whole entry): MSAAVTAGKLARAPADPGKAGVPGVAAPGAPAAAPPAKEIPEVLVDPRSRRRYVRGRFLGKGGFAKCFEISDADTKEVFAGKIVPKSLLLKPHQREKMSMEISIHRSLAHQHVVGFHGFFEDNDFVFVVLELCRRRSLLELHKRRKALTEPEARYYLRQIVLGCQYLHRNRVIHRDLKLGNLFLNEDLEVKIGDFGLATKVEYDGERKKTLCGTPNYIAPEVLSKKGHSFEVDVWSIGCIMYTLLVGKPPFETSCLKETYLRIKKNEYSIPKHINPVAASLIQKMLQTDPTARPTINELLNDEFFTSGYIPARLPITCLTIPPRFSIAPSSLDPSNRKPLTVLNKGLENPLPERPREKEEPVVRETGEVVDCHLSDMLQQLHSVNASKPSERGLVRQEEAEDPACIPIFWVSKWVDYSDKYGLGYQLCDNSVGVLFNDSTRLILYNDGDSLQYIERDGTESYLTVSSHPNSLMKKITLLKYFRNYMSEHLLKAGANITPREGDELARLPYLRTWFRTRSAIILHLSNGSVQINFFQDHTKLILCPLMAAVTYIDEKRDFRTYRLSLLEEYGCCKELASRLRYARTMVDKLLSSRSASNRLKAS

Sequence of GST-PBD367-603 of Plk1 (P53350 367-603): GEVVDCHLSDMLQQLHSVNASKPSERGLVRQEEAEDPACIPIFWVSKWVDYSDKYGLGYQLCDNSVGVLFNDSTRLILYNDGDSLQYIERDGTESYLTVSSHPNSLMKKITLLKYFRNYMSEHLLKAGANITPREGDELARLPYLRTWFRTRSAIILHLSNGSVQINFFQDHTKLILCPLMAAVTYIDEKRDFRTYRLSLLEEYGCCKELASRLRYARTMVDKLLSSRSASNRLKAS
T2 sequence (P53350 whole entry): as the sequence (P53350 whole entry) above
T1 sequence (P04049 whole entry): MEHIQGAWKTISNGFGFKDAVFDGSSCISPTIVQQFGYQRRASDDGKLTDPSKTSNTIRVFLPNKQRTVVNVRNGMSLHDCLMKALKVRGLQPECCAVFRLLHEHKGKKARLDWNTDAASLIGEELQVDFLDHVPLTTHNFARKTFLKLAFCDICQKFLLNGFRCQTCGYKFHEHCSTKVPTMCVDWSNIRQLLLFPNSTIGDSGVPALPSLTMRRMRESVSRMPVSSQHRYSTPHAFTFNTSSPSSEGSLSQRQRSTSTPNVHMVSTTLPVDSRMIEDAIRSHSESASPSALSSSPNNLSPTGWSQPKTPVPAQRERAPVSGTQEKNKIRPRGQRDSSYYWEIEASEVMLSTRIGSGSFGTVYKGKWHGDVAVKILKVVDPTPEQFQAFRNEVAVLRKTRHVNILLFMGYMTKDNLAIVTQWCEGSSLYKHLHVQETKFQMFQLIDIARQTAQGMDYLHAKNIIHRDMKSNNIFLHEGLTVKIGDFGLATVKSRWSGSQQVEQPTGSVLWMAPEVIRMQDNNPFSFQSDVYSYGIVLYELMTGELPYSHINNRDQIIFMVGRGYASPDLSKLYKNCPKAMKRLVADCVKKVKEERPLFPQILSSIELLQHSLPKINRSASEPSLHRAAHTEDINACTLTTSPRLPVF
T1 sequence (P15056 whole entry): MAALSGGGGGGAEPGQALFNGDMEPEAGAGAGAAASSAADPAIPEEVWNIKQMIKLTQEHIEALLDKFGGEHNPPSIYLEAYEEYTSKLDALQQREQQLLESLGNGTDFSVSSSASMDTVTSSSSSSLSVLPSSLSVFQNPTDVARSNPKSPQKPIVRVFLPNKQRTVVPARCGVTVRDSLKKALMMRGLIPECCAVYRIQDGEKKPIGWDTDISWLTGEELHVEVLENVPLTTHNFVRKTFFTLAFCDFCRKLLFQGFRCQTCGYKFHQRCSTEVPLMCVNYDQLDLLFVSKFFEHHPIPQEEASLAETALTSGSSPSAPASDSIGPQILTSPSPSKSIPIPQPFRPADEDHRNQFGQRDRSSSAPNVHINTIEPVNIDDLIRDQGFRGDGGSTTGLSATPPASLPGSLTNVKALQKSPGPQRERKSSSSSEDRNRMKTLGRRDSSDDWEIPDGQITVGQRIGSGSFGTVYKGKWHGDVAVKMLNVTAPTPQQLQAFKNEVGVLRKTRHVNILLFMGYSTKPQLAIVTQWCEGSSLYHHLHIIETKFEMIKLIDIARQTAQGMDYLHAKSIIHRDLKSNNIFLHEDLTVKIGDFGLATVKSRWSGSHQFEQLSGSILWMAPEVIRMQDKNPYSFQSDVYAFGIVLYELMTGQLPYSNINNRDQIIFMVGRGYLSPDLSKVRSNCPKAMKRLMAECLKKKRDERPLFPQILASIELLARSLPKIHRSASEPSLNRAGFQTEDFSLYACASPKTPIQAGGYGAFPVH
T3 sequence (P53350 326-603): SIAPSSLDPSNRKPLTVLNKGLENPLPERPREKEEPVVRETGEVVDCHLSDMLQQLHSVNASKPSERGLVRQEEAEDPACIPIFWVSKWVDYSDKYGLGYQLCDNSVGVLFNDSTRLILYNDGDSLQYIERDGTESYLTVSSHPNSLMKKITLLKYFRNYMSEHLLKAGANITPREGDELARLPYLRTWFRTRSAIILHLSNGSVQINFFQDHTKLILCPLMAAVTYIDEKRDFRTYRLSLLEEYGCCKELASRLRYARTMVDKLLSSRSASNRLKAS
T4 sequence (P53350 367-603): as the sequence (P53350 367-603) above

COc1ccc(-c2oc3ccccc3c(=O)c2OS(=O)(=O)c2cc(Cl)ccc2Cl)cc1 [Cpd 122]
Primary screen CRAF-BRAF (transient) % Inihibition (CRAF-BRAF; 10-25 μM): -8.30%
Primary screen CRAF-BRAF (transient) % Quench RLuc (CRAF-BRAF; 10-25 μM): 44.16%
Confirmation CRAF-BRAF (transient) % Inihibition (CRAF-BRAF; confirmation screen): 3.03%
Confirmation CRAF-BRAF (transient) % Quench RLuc (CRAF-BRAF; confirmation screen): 35.15%
effect on mitotic index, purchased compounds (HeLa cells [1]): significant increase
2 > pericentrin foci (percentage of cells) (HeLa cells [2]): 65 ± 2%
Disorganized spindles (percentage of cells) (HeLa cells [2]): 85 ± 5%
Average-Beads (mean luminescence) (Plk1-Map interaction [3]; 10-25 μM, 2 h): 1,018,574
Co-IP Values relative to top in plate column = 1 (Plk1-Map interaction [3]; 10-25 μM, 2 h): 0.776
effect on the Plk1-Map interaction in co-IP (Plk1-Map interaction [3]; 10-25 μM, 2 h): no effect
Relative Luminescence Unit (Plk1-Map interaction [3]; mean divided by maximum mean of the compounds): 0.776
activity in the FP assay (GST-PBD367-603 of Plk1; 50 μM): little or no activity
effect on mitotic index, purchased compounds (HEK293T cells): significant increase
Primary screen Plk1-Map (stable) % Inihibition (Plk1-Map interaction [4]; 10-25 μM, 2 h): 44.05%
Primary screen Plk1-Map (stable) % Quench RLuc (Plk1-Map interaction [4]; 10-25 μM, 2 h): 86.60%
Confirmation Plk1-Map (stable) % Inihibition (Plk1-Map interaction [4]; confirmation screen): 30.57%
Confirmation Plk1-Map (stable) % Quench RLuc (Plk1-Map interaction [4]; confirmation screen): 79.14%
Confirmation Plk1-Map (transient) % Inihibition (Plk1-Map interaction [5]): -1.93%
Confirmation Plk1-Map (transient) % Quench RLuc (Plk1-Map interaction [5]): 25.69%

C=CS(=O)(=O)c1cc(C(F)(F)F)cc(C)n1 [Cpd 161, 2-methyl-4-(trifluoromethyl)-6-(vinylsulfonyl) pyridine]
time to completion of reaction with amino-protected cysteine [6]: approximately 10 minutes
time to completion of reaction with amino-protected lysine [6]: approximately 10 minutes
alkylated residues very near the phosphopeptide binding site (His-PBD326-603 [7]): His489; also recorded: Lys492
residues of the PBD found alkylated (His-PBD326-603 [7]; 2.5 mM TQ, 2.5 mM Cpd 161 or 250 μM Poloxin, 3 hours): cysteines, lysines and histidines
IC50 (GST-PBD367-603 of Plk1; FP - IC50 (μM), Table S3): 8.3 ± 2.6 µM
activity in the FP assay (GST-PBD367-603 of Plk1; SAR): showed the same activity as Cpd 16
mobility shift of the PBD in SDS-PAGE (His-PBD326-603 [8]): appeared higher in the gel, a few kDa above the protein treated with DMSO alone

CC1=CC(=O)C(C(C)C)=CC1=O [TQ, Thymoquinone]
2 > pericentrin foci (percentage of cells) (HeLa cells [2]): 33 ± 9%
Disorganized spindles (percentage of cells) (HeLa cells [2]): 56 ± 8%
time to completion of reaction with amino-protected cysteine [6]: approximately 10 minutes
concentrations required to disrupt mitosis and induce apoptosis (mitosis): high micromolar concentrations

B1: unlabeled phosphopeptide GPMQS{T}PLNG (peptide)
peptide: GPMQS[pT]PLNG
notes: as m7 but without FITC in N-terminal; also called corresponding unlabeled phosphopeptide; equivalent unlabeled peptide; source: synthetic peptide (Bio Basic inc., >95% pure)
binding result (human GST-PBD_(367-603)): binds

B2: FITC-GPMQS{T}PLNG (FITC-labeled PBD-binding phosphopeptide) (peptide)
peptide: {FITC}-GPMQS[pT]PLNG
notes: also called FITC-phosphopeptide; source: synthetic peptide (Bio Basic inc., >95% pure)
binding result (human GST-PBD_(367-603)): binds

B3: FITC-GIAVPDEREFDIEADMRPHEL (Map peptide) (peptide)
peptide: {FITC}-GIAVPDEREFDIEADMRPHEL
notes: small peptide derived from Drosophila Map205; also called small peptide derived from Map205 coupled to FITC; source: synthetic peptide (Bio Basic inc., >95% pure)
binding result [9]: binds
